Laboratory results as given in patent publication US11040981B2, “Pyrrolotriazine compounds and methods of inhibiting TAM kinases” (Syros Pharmaceuticals, Inc., priority 2017, dated 2021).

Experiments:
FLT3 = molecular target: T1, FLT3 (Homo sapiens, UniProt P36888); assay: TR-FRET kinase activity assay, FLT3; assay type: biochemical; settings: ATP at Km, 60 minutes
T1 sequence (P36888 27-993): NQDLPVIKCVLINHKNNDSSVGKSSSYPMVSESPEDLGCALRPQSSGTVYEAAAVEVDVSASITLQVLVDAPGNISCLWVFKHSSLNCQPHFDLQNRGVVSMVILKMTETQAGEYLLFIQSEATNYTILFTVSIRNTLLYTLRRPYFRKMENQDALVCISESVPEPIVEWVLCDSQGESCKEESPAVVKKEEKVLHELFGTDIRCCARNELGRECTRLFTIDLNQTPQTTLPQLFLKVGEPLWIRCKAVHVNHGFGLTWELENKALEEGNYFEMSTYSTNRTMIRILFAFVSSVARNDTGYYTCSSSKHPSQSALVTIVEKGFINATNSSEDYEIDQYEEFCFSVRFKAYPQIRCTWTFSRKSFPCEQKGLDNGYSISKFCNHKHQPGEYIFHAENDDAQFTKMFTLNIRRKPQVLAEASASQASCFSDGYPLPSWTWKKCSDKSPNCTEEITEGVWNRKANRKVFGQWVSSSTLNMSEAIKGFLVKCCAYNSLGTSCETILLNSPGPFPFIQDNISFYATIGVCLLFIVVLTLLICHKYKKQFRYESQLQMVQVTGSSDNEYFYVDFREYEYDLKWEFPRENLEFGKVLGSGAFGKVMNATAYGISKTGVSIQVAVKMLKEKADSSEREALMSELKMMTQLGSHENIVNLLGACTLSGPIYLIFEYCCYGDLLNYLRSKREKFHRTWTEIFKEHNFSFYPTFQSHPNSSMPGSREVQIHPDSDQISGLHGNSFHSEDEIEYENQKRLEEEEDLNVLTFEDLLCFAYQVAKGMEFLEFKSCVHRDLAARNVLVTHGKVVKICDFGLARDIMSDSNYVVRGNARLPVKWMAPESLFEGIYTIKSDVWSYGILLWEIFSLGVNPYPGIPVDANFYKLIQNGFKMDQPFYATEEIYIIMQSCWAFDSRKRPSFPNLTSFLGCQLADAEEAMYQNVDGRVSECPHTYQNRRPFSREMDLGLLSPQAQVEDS
Summary of the method: (§1)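 Each kinase phosphorylated a fluorescent-labelled tyrosine peptide in 50 mM HEPES pH 7.5, 10 mM MgCl2, 1 mM EGTA, 0.01% Brij 35, 1 mM DTT at RT, with ATP at Km for that enzyme. After 60 min, EDTA quench and Eu-anti-phosphotyrosine antibody (30 min, dark); IC50 from TR-FRET decrease.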

TYRO3 = molecular target: T2, TYRO3 (Homo sapiens, UniProt Q06418); assay: TR-FRET kinase activity assay, TYRO3; assay type: biochemical; settings: ATP at Km, 60 minutes
T2 sequence (Q06418 41-890): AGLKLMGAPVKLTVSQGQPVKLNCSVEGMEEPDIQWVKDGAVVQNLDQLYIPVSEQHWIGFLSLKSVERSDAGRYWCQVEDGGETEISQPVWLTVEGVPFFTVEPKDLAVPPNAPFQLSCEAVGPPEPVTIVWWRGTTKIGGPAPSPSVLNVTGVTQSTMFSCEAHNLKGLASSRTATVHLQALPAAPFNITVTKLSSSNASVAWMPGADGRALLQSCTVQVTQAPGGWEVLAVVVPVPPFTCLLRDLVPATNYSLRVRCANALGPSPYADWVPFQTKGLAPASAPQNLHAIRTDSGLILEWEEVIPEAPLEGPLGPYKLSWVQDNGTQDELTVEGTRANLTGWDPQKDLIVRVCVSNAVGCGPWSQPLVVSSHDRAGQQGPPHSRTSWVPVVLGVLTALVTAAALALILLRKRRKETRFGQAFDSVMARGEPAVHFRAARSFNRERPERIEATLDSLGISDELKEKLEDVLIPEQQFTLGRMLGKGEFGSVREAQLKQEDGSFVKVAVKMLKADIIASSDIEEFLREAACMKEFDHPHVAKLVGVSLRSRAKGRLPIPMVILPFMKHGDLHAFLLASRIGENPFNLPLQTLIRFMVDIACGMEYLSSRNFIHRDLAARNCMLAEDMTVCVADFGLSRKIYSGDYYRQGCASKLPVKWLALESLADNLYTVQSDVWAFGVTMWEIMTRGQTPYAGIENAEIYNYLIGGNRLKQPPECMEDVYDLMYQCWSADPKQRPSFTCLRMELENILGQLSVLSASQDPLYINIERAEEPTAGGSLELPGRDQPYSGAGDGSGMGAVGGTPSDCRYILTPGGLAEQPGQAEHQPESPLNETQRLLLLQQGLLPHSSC
Summary of the method: as §1

SMILES | IC50 (FLT3) | IC50 (TYRO3)
COCC(C)Nc1ncc2c(-c3ccc(C4(N5CCN(C)CC5)CC4)cc3)cc(C3CCC(O)CC3)n2n1 (stereo not drawn) [Compound 185] | 100 to 1000 nM | ≤ 100 nM
COC[C@H](C)Nc1ncc2c(-c3cn(C)cn3)cc([C@H]3CC[C@H](O)CC3)n2n1 [Compound 186] | 100 to 1000 nM | ≤ 100 nM
C[C@@H](COC(F)F)Nc1ncc2c(-c3ccc(CN4CCOCC4)cc3)cc([C@H]3CC[C@H](O)CC3)n2n1 [Compound 188] | ≤ 100 nM | ≤ 100 nM
CC(CC1CC1)Nc1ncc2c(-c3ccc(CN4CCOCC4)cc3)cc(C3CCC(O)CC3)n2n1 (stereo not drawn) [Compound 189] | ≤ 100 nM | ≤ 100 nM
Cc1cc(-c2cc(C3CCC(O)CC3)n3nc(NC(C)CC4CC4)ncc23)ccn1 (stereo not drawn) [Compound 190] | ≤ 100 nM | ≤ 100 nM
COCC(C)Nc1ncc2c(C3CC4CCC(C3)N4C)cc(C3CCC(O)CC3)n2n1 (stereo not drawn) [Compound 191] | 1000 to 10000 nM | ≤ 100 nM

Results, then the molecule that gave them:

IC50 (FLT3) | IC50 (TYRO3) | SMILES
100 to 1000 nM | 100 to 1000 nM | CCCCC[C@H](C)Nc1ncc2c(-c3ccc(S(=O)(=O)N4CCOCC4)cc3)cc([C@H]3CC[C@@H](O)CC3)n2n1 [Compound 103, (1R,4s)-4-(2-((S)-heptan-2-ylamino)-5-(4-(morpholinosulfonyl)phenyl)pyrrolo[2,1-f][1,2,4]triazin-7-yl)cyclohexanol]
100 to 1000 nM | ≤ 100 nM | COC[C@H](C)Nc1ncc2c(-c3ccc(C(=O)N4CCOCC4)cc3)cc([C@H]3CC[C@H](O)CC3)n2n1 [Compound 187, (4-(7-((trans)-4-hydroxycyclohexyl)-2-(((S)-1-methoxypropan-2-yl)amino)pyrrolo[2,1-f][1,2,4]triazin-5-yl)phenyl)(morpholino)methanone]
1000 to 10000 nM | 1000 to 10000 nM | COCC(C)Nc1ncc2c(N3CCOCC3=O)cc(C3CCC(O)CC3)n2n1 (stereo not drawn) [Compound 192]
